Source: PMC7023222, “Ionic Liquid Forms of the Antimalarial Lumefantrine in Combination with LFCS Type IIIB Lipid-Based Formulations Preferentially Increase Lipid Solubility, In Vitro Solubilization Behavior and In Vivo Exposure” (Pharmaceutics, 2019)
Several values for one entry are separate records, joined by “and”; a condition that tells them apart may be missing. Equal values may be shown once. Read-outs that look alike come from different tables or passages of the source.

What was measured:
[1] = Supersaturation during in vitro dispersion/digestion testing; assay type: physicochemical; conditions: for maximum supersaturation ratio SR^Mdisp (APmax/APdigest): dispersion, time 0 min; for maximum supersaturation ratio SR^Mdig (APmax/APdigest): end of digestion, 60 min
Method: Supersaturation During In Vitro Testing. The degree of supersaturation of drug concentrations in the aqueous phase during formulation dispersion/digestion was assessed by comparing the measured aqueous phase concentration to equilibrium drug solubility in blank aqueous phase obtained by dispersion and digestion of blank (i.e., non-drug loaded) formulation under identical conditions. Due to the physical state of lumefantrine docusate (i.e., an amorphous semi-solid), the equilibrium solubility assessment was conducted by dissolving 3 mg of IL in 10 µL of ethanol in a microcentrifuge tube and then adding 200 mg of aqueous phase obtained from the blank digestions (n = 3 for each time point for each formulation). The contents were subsequently vortex-mixed for 30 s. […] Supersaturation was assessed at 4 time points during the in vitro dispersion and digestion tests (0 min (end dispersion), and 5, 30, and 60 min (post digestion)) for the Type II-MC, IIIB-MC, IIIB-LC, and IV formulations.
The supersaturation ratio (SR) provides an indication of thermodynamic activity and the likelihood of either drug precipitation, or enhanced absorption from an LBF, where the higher the number, the more supersaturated and therefore the more likely to precipitate during in vitro digestion. The maximum supersaturation ratio (SR^M) provides a measure of the maximum supersaturation pressure that would be generated by digestion of an LBF, assuming no precipitation and is calculated from the following:(1) SR^M=APmax/APdigest where APmax is the maximum possible aqueous phase concentration of drug during the in vitro dispersion and digestion test (i.e., in the absence of any precipitation), and APdigest is the equilibrium solubility of the drug in blank aqueous phase (i.e., where the aqueous phase was obtained from a digestion of blank LBF). Williams et al. have previously proposed that sustainable supersaturation most commonly occurs when SR^M < 3, and that exceeding this threshold increases the likelihood of drug precipitation during in vitro dispersion and digestion tests. Only the Type II-MC, IIIB-MC, IIIB-LC, and IV formulations were evaluated as these were the four formulations chosen to proceed to the in vivo bioavailability studies. The figures also depict APmax, as well as the drug solubility in the aqueous colloidal phase of the blank LBF (APdigest). […] This was most apparent at early time points for the Type II-MCF formulation where SR^M was ~20 and at later time points post digestion for the Type IIIB-MCF where SR^M was >40. […] Similarly, the SR^M for the Type IIIB-MCF at the end of digestion was the highest, but majority of lumefantrine docusate remained solubilized at 60 min (69% solubilized).

[2] = In vitro dispersion and digestion test of LBFs (drug solubilization); assay type: physicochemical; conditions: for % of drug present in the aqueous phase compared to total drug loading: end of digestion phase (60 min), loading 80% of equilibrium solubility, n = 3
Method: In Vitro Drug Solubilization. […] Drug loading in each formulation was at 80% of the equilibrium solubility of the drug or API-IL in that formulation to maintain a consistent thermodynamic activity across all LBFs. In vitro dispersion and digestion experiments were conducted using a pH-stat apparatus (Metrohm® AG, Herisau, Switzerland), which comprised a Titrando 802 propeller stirrer/804 Ti Stand combination, a glass pH electrode (iUnitrode), and two 800 Dosino dosing units coupled to 10 mL autoburettes (Metrohm® AG). The pH-stat was connected to a PC and operated via Tiamo 2.0 software (Metrohm®). […] The pancreatic enzyme was prepared by mixing 1 g of porcine pancreatin with 5 mL of lipolysis buffer and 20 µL of 5 M NaOH. After mixing, this was then centrifuged at 2880× g at 5 °C for 10 min (Crown Scientific, Eppendorf AG Centrifuge 5804 R, Sydney Australia) and the supernatant used as the enzyme solution. The lipolysis buffer was prepared by dissolving 0.474 g of tris maleate, 0.206 g of CaCl2·H2O, and 8.775 g of NaCl in one liter of distilled water to form a 2 mM tris maleate 1.4 mM CaCl2·H2O 150 mM NaCl buffer; the pH was adjusted to 6.5 using NaOH. The micellar solution was prepared by dissolving 0.783 g of NaTDC and 0.291 g of PC in 500 mL of lipolysis buffer to form a 3 mM NaTDC 0.75 mM PC solution. […] This drop in pH was detected by the pH-stat controller, which then titrated the FA produced using an autoburette that added NaOH to keep the pH at a set point (0.6 M NaOH for MCFs, and 0.2 M NaOH for LCFs). By knowing the quantity of NaOH added and assuming stoichiometric titration, this indirectly quantified the extent of FA production (as a measure of digestion). […] The mass of the drug recovered in the aqueous phase and the pellet phase was then quantified by HPLC [35, 36]. The supernatant and pellet samples were diluted with acetonitrile (1:10 v/v) and then mobile phase (1:10 v/v), and lumefantrine concentrations in the samples determined using HPLC [35, 36, 37, 38].

[3] = Oral bioavailability study in rats; assay type: in vivo, male Sprague-Dawley rats
Method: Oral Bioavailability Studies. […] Experiments were conducted in fasted male Sprague-Dawley rats (240–320 g). The day prior to the study, the rats were anaesthetized with isoflurane and the right carotid artery was surgically cannulated with polyethylene tubing to facilitate blood collection (procedure described previously) [40]. Animals were allowed to recover overnight and were fasted up to 12 h prior to and 8 h after dose administration, with water provided ad libitum. The rats were fed 8 h after dosing.
Animals were then administered a further 0.5 mL of water. […] The aqueous suspension comprised 0.5% w/v sodium carboxymethylcellulose, 0.4% w/v Tween 80, and 0.9% NaCl in water.
Blood samples were collected via the carotid artery cannula at pre-dose, 0.5, 1, 2, 3, 4, 6, 8, 10, and 24 h after oral administration of the formulations. Blood samples were centrifuged at 6700× g for 5 min and plasma was collected and stored at −20 °C until assayed by LC-MS. Statistically significant differences between formulations were determined by one-way analysis of variance (ANOVA) at a test significance level of α ≤ 0.05, followed by a Tukey’s multiple comparisons test.
Plasma Sample Preparation and Analysis. Lumefantrine concentrations in rat plasma were assayed via LC-MS using a modification of a previously published assay for lumefantrine [41]. […] Plasma samples or calibration standards (50 µL) were spiked with 10 µL of internal standard (halofantrine hydrochloride, 1000 ng/mL in 1:1 v/v water: acetonitrile) followed by vortex mixing for 10 s. To precipitate plasma proteins, acetonitrile (200 µL) was added and samples vortex mixed for 1 min. The samples were then allowed to stand at room temperature for 30 min. After centrifugation at 10,000× g for 10 min at room temperature, 150 µL of supernatant was transferred into vials for analysis.
Lumefantrine plasma samples were analyzed using a Shimadzu LCMS-8050 system (Shimadzu Scientific Instruments, Kyoto, Japan) consisting of a CBM-20A system controller, a DGU-20A5R degassing unit, two Nexera X2 LC-30 AD liquid chromatograph pumps, a Nexera X2 SIL-30AC autosampler, a CTO-20A column oven (held at 40 °C), and a triple quadrupole mass spectrometer with an electrospray ionization (ESI) interface. Data acquisition and processing was performed using LC-MS Solutions software (Shimadzu, Kyoto, Japan). The desolvation line (DL) and heat block were kept at 250 °C and 400 °C, respectively. The nebulizing gas flow and drying gas flow rates were 3.0 L/min and 10.0 L/min, respectively. Mobile phase A was Milli-Q water containing 0.1% w/v formic acid, and mobile phase B was acetonitrile containing 0.1% w/v formic acid. […] Mobile phase B was then held at 80% for 0.5 min, followed by a linear decrease to 30% over the next 0.5 min after which conditions were held for another 0.5 min.

[4] = Method: Equilibrium Solubility Studies. […] Each equilibrium solubility experiment was completed in triplicate. Equilibrium solubility was defined when solubility measured across two consecutive days varied less than 5%. The samples were allowed to equilibrate at 37 °C and were vortex-mixed twice a day to ensure the compounds were well dispersed in the LBF. The samples were left to equilibrate for at least 3 days. […] At each time point, samples were then centrifuged at 37 °C (14,800 rpm (21,000× g), Thermo Scientific, Heraeus Pico 21 Centrifuge) and aliquots of 20 mg were taken from the supernatant and dissolved in 1 mL of chloroform: methanol (2:1, v/v). The chloroform: methanol solution was then diluted 20-fold with water: acetonitrile (1:1, v/v). The samples were then assayed by HPLC to determine the concentration of compound in formulation.
[5] = parameters: method as in PMID 30376336; conditions: cited from earlier work
[6] = cited from earlier work
[7] = parameters: method as in PMID 23531442; conditions: cited from earlier work

Question: Which “maximum supersaturation ratio SR^Mdisp (APmax/APdigest)” value ([1]; Type II-MCF) does the source give for `CCCCC(CC)COC(=O)CC(C(=O)OCC(CC)CCCC)S(=O)(=O)O.CCCCN(CCCC)CC(O)c1cc(Cl)cc2c1-c1ccc(Cl)cc1C2=Cc1ccc(Cl)cc1` (racemic) [lumefantrine docusate] here?
Answer: The value was ~ 20 and 19.9.

Question: And the “supersaturation ratio SR (measured aqueous phase concentration / equilibrium solubility in blank aqueous phase)” value ([1]; Type II-MCF, during dispersion)?
Answer: Its value is 5.5.

Question: What about the “maximum supersaturation ratio SR^Mdig (APmax/APdigest)” value ([1]; Type II-MCF) of the same compound?
Answer: Its value is 8.0.

Question: And the “maximum supersaturation ratio SR^Mdisp (APmax/APdigest)” value ([1]; Type IIIB-LCF)?
Answer: The value was 3.6.

Question: And the “maximum supersaturation ratio SR^Mdig (APmax/APdigest)” value ([1]; Type IIIB-LCF)?
Answer: The value was 7.9.

Question: What about the “maximum supersaturation ratio SR^Mdisp (APmax/APdigest)” value ([1]; Type IIIB-MCF) of the same compound?
Answer: Its value is 5.7.

Question: What about the “maximum supersaturation ratio SR^Mdig (APmax/APdigest)” value ([1]; Type IIIB-MCF) of the same compound?
Answer: Its value is > 40 and 43.2.

Question: What about the “supersaturation throughout the in vitro test” value ([1]; Type IV formulation) of the same compound?
Answer: The value was “no supersaturation was evident”.

Question: And the “maximum supersaturation ratio SR^Mdisp (APmax/APdigest)” value ([1]; Type IV)?
Answer: Its value is 6.3.

Question: What about the “maximum supersaturation ratio SR^Mdig (APmax/APdigest)” value ([1]; Type IV) of the same compound?
Answer: The value was 8.1.

Question: And the “maximum supersaturation ratio SR^M” value ([1]; in all cases: Type II-MC, IIIB-MC, IIIB-LC and IV formulations)?
Answer: Its value is “higher than 3”.

Question: What about the “% of drug present in the aqueous phase compared to total drug loading” value ([2]; Type IIIB-LCF) of the same compound?
Answer: Its value is 89%.

Question: And the “% of drug present in the aqueous phase compared to total drug loading” value ([2]; Type IIIB-MCF)?
Answer: The value was 69%.

Question: What about the “drug concentration in the aqueous phase, fold higher than the equivalent lumefantrine free base formulations” value ([2]; after dispersion and digestion, range over all LBFs) of the same compound?
Answer: Its value is 2-to-55 fold.

Question: What about the “exposure, fold enhanced when compared to the free base” value ([3]; IL in LBF vs free base suspensions 85 mg/kg) of the same compound?
Answer: Its value is “up to 50 fold”.

Question: And the “increase in exposure after oral administration compared to aqueous suspension of the free base” value ([3]; Type IIIB LC formulation 65 mg/kg vs aqueous suspension 85 mg/kg)?
Answer: Its value is ~ 50 fold.

Question: And the “increase in exposure after oral administration compared to lipid suspension of the free base” value ([3]; Type IIIB LC formulation 65 mg/kg vs free base suspension in Type IIIB-LCF 85 mg/kg)?
Answer: Its value is ~ 10 fold.

Question: What about the “systemic exposure (AUC 0 to 24 h), statistical comparison” value ([3]; Type IIIB-LCF 65 mg/kg, one-way ANOVA, p < 0.05, n = 4) of the same compound?
Answer: The value was “significantly higher exposure than all other formulations tested”.

Question: What about the “systemic exposure (AUC 0 to 24 h), statistical comparison with both free base suspensions” value ([3]; Type IIIB-MCF 65 mg/kg, one-way ANOVA, p < 0.05, n = 4) of the same compound?
Answer: The value was “significantly higher exposure”.

Question: And the “miscibility in the Type IV formulation” value [4]?
Answer: The value was “miscible”.

Question: What about the “solubility in LBF, fold higher than lumefantrine free base” value [4] of the same compound?
Answer: Its value is 2- to 80 fold.

Question: What about the “solubility in the Type IV formulation (proportions)” value [4] of the same compound?
Answer: The value was > 1:1 w/w.

Question: With `CCCCC(CC)COC(=O)CC(C(=O)OCC(CC)CCCC)S(=O)(=O)O.COc1cc2nccc(Oc3ccc(NC(=O)C4(C(=O)Nc5ccc(F)cc5)CC4)cc3)c2cc1OC` [Cabozantinib docusate, cabozantinib docusate] as the compound, how does the “bioavailability, fold enhanced compared to an aqueous suspension of cabozantinib free base” value ([5]; long-chain SEDDS) read?
Answer: The value was 1.8 fold.

Question: And the “bioavailability, fold enhanced compared to an aqueous suspension of cabozantinib free base” value ([5]; medium-chain SEDDS)?
Answer: Its value is 1.5 fold.

Question: With `C(=C\c1ccccc1)/CN1CCN(C(c2ccccc2)c2ccccc2)CC1.CCCCCCCCCCOS(=O)(=O)O` [cinnarizine decyl sulfate] as the compound, how does the “exposure, fold higher than equivalent dose of cinnarizine free base as a suspension in the same SEDDS formulation” value ([6]; rats, SEDDS formulation) read?
Answer: The value was ~ 2 fold.

Question: Which “exposure compared with the commercial formulation Sporanox” value ([6]; rat, in vivo) does the source give for `CCC(C)n1ncn(-c2ccc(N3CCN(c4ccc(OCC5COC(Cn6cncn6)(c6ccc(Cl)cc6Cl)O5)cc4)CC3)cc2)c1=O.CCCCC(CC)COC(=O)CC(C(=O)OCC(CC)CCCC)S(=O)(=O)O` (stereo not shown) [itraconazole docusate] here?
Answer: The value was “greater exposure”.

Question: And the “exposure, fold higher than an itraconazole suspension of equal dose” value ([6]; rat, in vivo)?
Answer: Its value is ~ 20 fold.

Question: For `CCCCN(CCCC)CC(O)c1cc(Cl)cc2c1-c1ccc(Cl)cc1/C2=C/c1ccc(Cl)cc1` (stereo not shown) [lumefantrine], which oral bioavailability [7] is on record?
Answer: Its oral bioavailability is 4–11%.
